What is called melting point is the temperature of the solid-liquid transition. As usually defined, the pKi is the negative decadic logarithm of the Ki, by convention in mol/L.

SMILES strings stand for the structures. pKi: −log10 of the molar value. Counter-ions that a name gives are not always drawn.

Data set [1] concerns the target T1, Human Histamine H3 Receptor (Homo sapiens, UniProt Q9Y5N1).
T1 construct: expressed in transfected cells; host or cells: HEK293T (stably transfected; membranes prepared from the cells)
In words: Methyl histamine binding in human histamine H3 receptor cell line. As to conditions: read-out: H3 Binding Ki. The method, boiled down: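 Radioligand binding on membranes (10 μg/well) from a human H3 receptor cell line, 1 nM radioligand, 1 h at 30° C. in 50 mM Tris pH 7.5. Nonspecific binding defined with 10 uM clobenpropit, followed by filtration and scintillation counting. IC50 from four-parameter fit, converted to Ki by Cheng-Prusoff.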

T1 sequence (Q9Y5N1 whole entry): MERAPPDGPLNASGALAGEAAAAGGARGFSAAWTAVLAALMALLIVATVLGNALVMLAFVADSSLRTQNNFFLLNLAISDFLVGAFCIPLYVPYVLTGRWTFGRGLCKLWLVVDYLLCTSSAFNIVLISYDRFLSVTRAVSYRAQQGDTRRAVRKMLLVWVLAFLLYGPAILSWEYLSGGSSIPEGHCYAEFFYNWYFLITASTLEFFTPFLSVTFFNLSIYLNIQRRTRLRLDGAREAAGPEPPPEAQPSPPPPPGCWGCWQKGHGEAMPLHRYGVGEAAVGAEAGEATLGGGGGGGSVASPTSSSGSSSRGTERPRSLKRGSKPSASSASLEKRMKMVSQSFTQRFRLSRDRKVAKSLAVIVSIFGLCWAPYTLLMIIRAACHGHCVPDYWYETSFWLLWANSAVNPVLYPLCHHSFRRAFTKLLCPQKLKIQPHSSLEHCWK

In turn, `O=C(c1ccc(-c2ccc3c(c2)CCN(CCN2CCCC2)C3=O)cc1F)N1CCCC1` [Example 133, 6-[3-fluoro-4-(pyrrolidin-1-ylcarbonyl)phenyl]-2-(2-pyrrolidin-1-ylethyl)-3,4-dihydroisoquinolin-1(2H)-one] had a melting point of 231 to 232 °C. In data set [1], the pKi is over 8.00. For `O=C(c1ccc(-c2ccc3c(c2)CCN(CCN2CCCC2)C3=O)cc1)C1CC1` [Example 103, 6-[4-(cyclopropylcarbonyl)phenyl]-2-(2-pyrrolidin-1-ylethyl)-3,4-dihydro-isoquinolin-1(2H)-one], the melting point lay within 244 to 246 °C. Also, the pKi in data set [1] is over 8.00. In the same order, the values of `C[C@@H]1CCCN1CCN1CCc2cc(-c3ccc(F)cc3)ccc2C1` [Example 172, 6-(4-fluorophenyl)-2-{2-[(2R)-2-methylpyrrolidin-1-yl]ethyl}-1,2,3,4-tetrahydroisoquinoline] are 232 to 234 °C and 7.30 to 7.60.

Turning to `CC(C)NC(=O)c1ccc(Oc2ccc3c(c2)CCN(CCN2CCCC2)C3=O)cc1` [Example 94, N-isopropyl-4-{[1-oxo-2-(2-pyrrolidin-1-ylethyl)-1,2,3,4-tetrahydroisoquinolin-6-yl]oxy}benzamide], the melting point lay in the range of 223 to 224 °C. Further, in data set [1], the pKi is over 8.00. In turn, `CNC(=O)c1ccc(Oc2ccc3c(c2)CCN(CCN2CCCC2)C3=O)cc1` [Example 92, N-methyl-4-{[1-oxo-2-(2-pyrrolidin-1-ylethyl)-1,2,3,4-tetrahydroisoquinolin-6-yl]oxy}benzamide] registered a melting point of 235 to 236 °C. Further, the negative-log Ki (pKi) in data set [1] is 7.60 to 8.00. Compound `Fc1cccc(-c2ccc3c(c2)CCN(CCN2CCCC2)C3)c1` [Example 173, 6-(3-fluorophenyl)-2-(2-pyrrolidin-1-ylethyl)-1,2,3,4-tetrahydroisoquinoline] registered a melting point of 272 to 274 °C. Besides, in data set [1], the pKi is 7.00 to 7.30.

In the case of `C[C@@H]1CCCN1CCN1Cc2cc(-c3ccc(C#N)cc3)ccc2C1=O` [Example 117, (R)-4-(2-(2-(2-methylpyrrolidin-1-yl)ethyl)-1-oxoisoindolin-5-yl)benzonitrile], the melting point is 214 to 216 °C. In addition, the negative logarithm of the Ki (pKi) in data set [1] was 7.60 to 8.00.

Take `C[C@@H]1CCCN1CCN1Cc2cc(-c3ccc(C(=O)N4CCCC4)cc3)ccc2C1=O` [Example 119, 2-{2-[(2R)-2-methylpyrrolidin-1-yl]ethyl}-5-[4-(pyrrolidin-1-ylcarbonyl)phenyl]-isoindolin-1-one]: the melting point is 184 to 185 °C. For the same compound, the pKi in data set [1] was under 7.00. In turn, `O=C1c2ccc(-c3cccc(F)c3)cc2CCN1CCN1CCCC1` (as salt: hydrochloride) [Example 18, 6-(3-fluorophenyl)-2-(2-pyrrolidin-1-ylethyl)-3,4-dihydroisoquinolin-1(2H)-one] had a melting point of 182 to 184 °C. Consider `C[C@@H]1CCCN1CCN1CCc2cc(-c3ccc(C(=O)NC4CC4)cc3)ccc2C1=O` (as salt: hydrochloride) [Example 76, N-cyclopropyl-4-(2-{2-[(2R)-2-methylpyrrolidin-1-yl]ethyl}-1-oxo-1,2,3,4-tetrahydroisoquinolin-6-yl)benzamide], for which the melting point lay in the range of 255 to 257 °C. Compound `COC(=O)c1ccc(Oc2ccc3c(c2)CCN(CCN2CCCC2)C3=O)cc1` (as salt: hydrochloride) gave a melting point of 215 to 216 °C. Still for that read-out and setting: with `O=C(NCc1ccco1)c1ccc(-c2ccc3c(c2)CCN(CCN2CCCC2)C3=O)cc1` (as salt: hydrochloride) [Example 125, N-(2-furylmethyl)-4-[1-oxo-2-(2-pyrrolidin-1-ylethyl)-1,2,3,4-tetrahydroisoquinolin-6-yl]benzamide] the figure was 211 to 213 °C; with `C[C@@H]1CCCN1CCN1CCc2c(cccc2-c2cccc(C#N)c2)C1=O` (as salt: hydrochloride) [Example 27, 3-(2-{2-[(2R)-2-methylpyrrolidin-1-yl]ethyl}-1-oxo-1,2,3,4-tetrahydroisoquinolin-5-yl)benzonitrile], 203 to 205 °C.

(Values after patent US20090069300A1, “ISOQUINOLINYL AND ISOINDOLINYL DERIVATIVES AS HISTAMINE-3 ANTAGONISTS” (Wyeth, priority 2007, published 2009).)
